SMILES strings stand for the structures. Structures can show the parent of a compound that is named as a salt. Where two headings read alike, the source gives them in different places.

In assay [1] the test system is P. falciparum 3D7 parasites. Nature of the assay: Asexual erythrocytic-stage SYBR Green I proliferation assay, 1536-well. The note with it: Plasmodium falciparum. In kind it is cell-based, Plasmodium falciparum.
Assay [2] relates to Plasmodium berghei (Pb-Luc) exoerythrocytic-stage parasites. Nature of the assay: microbe, parasite or virus in culture.
Setting [3] is: 3D7, read-out: P. falciparum (blood) IC50.
Where [4] appears, read: read-out: P. berghei (liver) IC50.
Setting [5] is: 3D7, read-out: P. falciparum (blood) IC50, Table S1, validation set of 50 antimalarials.
The mark [6] stands for this setting: read-out: P. berghei (liver) IC50, Table S1, validation set of 50 antimalarials, Pb-Luc.

Turning to `CCN(CC)CCCC(C)Nc1ccnc2cc(Cl)ccc12` (centres unmarked) [Chloroquine, reference compound], the IC50 in assay [1] (setting [3]) is 2.1 nM; in assay [2] (setting [4]) it was over 12500 nM.

In the case of `C[C@@H]1CC[C@H]2[C@@H](C)C(=O)O[C@@H]3O[C@@]4(C)CC[C@@H]1[C@]32OO4` [Artemisinin, reference compound], the IC50 in assay [1] (setting [5]) was found to be 4.7 nM; in assay [2] (setting [6]), 1720 nM.

As to `c1cc([C@H]2CC[C@]3(CC2)OO[C@]2(O3)C3CC4CC(C3)CC2C4)ccc1OCCN1CCOCC1` [OZ439, reference compound], the results for the IC50 in assay [1] (setting [5]) and in assay [2] (setting [6]) were 2.8 nM and 5240 nM, respectively.

For `CC[C@H]1OC(=O)[C@H](C)[C@@H](O[C@H]2C[C@@](C)(OC)[C@@H](O)[C@H](C)O2)[C@H](C)[C@@H](O[C@@H]2O[C@H](C)C[C@H](N(C)C)[C@H]2O)[C@](C)(O)C[C@@H](C)CN(C)[C@H](C)[C@@H](O)[C@]1(C)O` [Azithromycin, reference compound], the IC50 in assay [1] (setting [5]) was 257 nM; in assay [2] (setting [6]) it was over 12500 nM.

`C[C@H]1[C@H](OC(=O)CCC(=O)O)O[C@@H]2O[C@@]3(C)CC[C@H]4[C@H](C)CC[C@@H]1[C@@]24OO3` [Artesunate, reference compound]: the IC50 came out at 0.9 nM in assay [1] (setting [5]) and 246 nM in assay [2] (setting [6]).

For the molecule `C[C@H]1[C@@H](O)O[C@@H]2O[C@@]3(C)CC[C@H]4[C@H](C)CC[C@@H]1[C@@]24OO3` [Artenimol, reference compound], the IC50 in assay [1] (setting [5]) was under 0.4 nM; in assay [2] (setting [6]), 1560 nM.

With `CC(=O)N(O)CCCCCNC(=O)CCC(=O)N(O)CCCCCNC(=O)CCC(=O)N(O)CCCCCN` [Deferoxamine, reference compound], the values for the IC50 in assay [1] (setting [5]) and in assay [2] (setting [6]) were over 10000 nM and over 12500 nM, respectively.

In the case of `COc1ccc2nc3cc(Cl)ccc3c(Nc3cc(CN4CCCC4)c(O)c(CN4CCCC4)c3)c2n1` [Pyronaridine, reference compound], the IC50 turned out to be 9.6 nM in assay [1] (setting [5]) and 6790 nM in assay [2] (setting [6]).

For the molecule `Nc1ccc(S(=O)(=O)Nc2ncccn2)cc1` [Sulfadiazine, reference compound], the IC50 is over 62500 nM in assay [1] (setting [5]) and 16 nM in assay [2] (setting [4]).

As for `[H]/N=C(\N/C(=N/[H])Nc1ccc(Cl)cc1)NC(C)C` [Proguanil HCL, reference compound], the values for the IC50 in assay [1] (setting [5]) and in assay [2] (setting [6]) were 6240 nM and 4560 nM, respectively.

`CCCCN(CCCC)CCC(O)c1cc2c(Cl)cc(Cl)cc2c2cc(C(F)(F)F)ccc12` (centres unmarked) [Halofantrine, reference compound]: the IC50 in assay [1] (setting [5]) worked out at 1.5 nM; in assay [2] (setting [6]), 2840 nM.

`C=C[C@H]1C[N@@]2CC[C@H]1C[C@@H]2[C@@H](O)c1ccnc2ccc(OC)cc12` [Quinidine, reference compound]: the IC50 is 2.9 nM in assay [1] (setting [5]) and over 12500 nM in assay [2] (setting [6]).

For `Nc1ccc(S(=O)(=O)c2ccc(N)cc2)cc1` [Dapsone, reference compound], the IC50 in assay [1] (setting [5]) was over 62500 nM; in assay [2] (setting [6]), 2440 nM.

On to `CCCCN(CCCC)CC(O)c1cc(Cl)cc2c1-c1ccc(Cl)cc1/C2=C/c1ccc(Cl)cc1` (centres unmarked) [Lumefantrine, reference compound], for which the values for the IC50 in assay [1] (setting [5]) and in assay [2] (setting [6]) were 7.3 nM and over 12500 nM, respectively.

On to `CO[C@H]1O[C@@H]2O[C@@]3(C)CC[C@H]4[C@H](C)CC[C@@H]([C@H]1C)[C@@]24OO3` [Artemether, reference compound], for which the results for the IC50 in assay [1] (setting [5]) and in assay [2] (setting [6]) were under 0.4 nM and 3140 nM, respectively.

With `CN(C)c1ccc2nc3ccc(=[N+](C)C)cc-3sc2c1` [Methylene Blue, reference compound], the values for the IC50 in assay [1] (setting [5]) and in assay [2] (setting [6]) were 7980 nM and 95.6 nM, respectively.

Regarding `COc1cc(C)c2c(Oc3cccc(C(F)(F)F)c3)c(OC)cc(NC(C)CCCN)c2n1` (centres unmarked) [Tafenoquine, reference compound], the IC50 worked out at 2820 nM in assay [1] (setting [5]) and 5860 nM in assay [2] (setting [6]).

As for `Cc1cc2nc3c(=O)[nH]c(=O)nc-3n(C[C@H](O)[C@H](O)[C@H](O)CO)c2cc1C` [Riboflavin, reference compound], the IC50 was over 62500 nM in assay [1] (setting [5]) and over 12500 nM in assay [2] (setting [6]).

Regarding `CN(C)[C@@H]1C(O)=C(C(N)=O)C(=O)[C@@]2(O)C(O)=C3C(=O)c4c(O)cccc4[C@@](C)(O)[C@H]3C[C@@H]12` [Tetracycline, reference compound], the IC50 in assay [1] (setting [5]) is over 10000 nM; in assay [2] (setting [4]) it was over 12500 nM.

For `CC(C)(N)CNC(=O)C[C@H]1CC[C@]2(CC1)OO[C@]1(O2)C2CC3CC(C2)CC1C3` [OZ277, reference compound], the figures for the IC50 in assay [1] (setting [5]) and in assay [2] (setting [6]) were 2.3 nM and 1640 nM, respectively.

Consider `CCN(CC)Cc1cc(Nc2ccnc3cc(Cl)ccc23)ccc1O` [Amodiaquine, reference compound], for which the figures for the IC50 in assay [1] (setting [5]) and in assay [2] (setting [6]) were over 62500 nM and 1590 nM, respectively.

Regarding `C[C@H]1[C@H](N2CCS(=O)(=O)CC2)O[C@@H]2O[C@@]3(C)CC[C@H]4[C@H](C)CC[C@@H]1[C@@]24OO3` [Artemisone, reference compound], the IC50 in assay [1] (setting [5]) was determined as 0.7 nM; in assay [2] (setting [6]), 178 nM.

Turning to `N=C(N)c1ccc(OCCCCCOc2ccc(C(=N)N)cc2)cc1` [Pentamidine, reference compound], the IC50 in assay [1] (setting [5]) was 0.5 nM; in assay [2] (setting [6]) it was 286 nM.

Consider `CCN(CC)CCCC(C)Nc1cc(OC)cc2cccnc12` (centres unmarked) [Pamaquine, reference compound], for which the results for the IC50 in assay [1] (setting [5]) and in assay [2] (setting [6]) were over 10000 nM and over 12500 nM, respectively.

On to `C=C(NC(=O)C(=C)NC(=O)c1csc(C2=N[C@@H]3c4csc(n4)[C@H]4NC(=O)c5csc(n5)[C@H]([C@](C)(O)[C@@H](C)O)NC(=O)[C@H]5CSC(=N5)/C(=C/C)NC(=O)[C@H]([C@@H](C)O)NC(=O)c5csc(n5)[C@]3(CC2)NC(=O)[C@H](C)NC(=O)C(=C)NC(=O)[C@H](C)NC(=O)[C@H]([C@@H](C)CC)N[C@@H]2C=Cc3c([C@H](C)O)cc(nc3[C@H]2O)C(=O)O[C@@H]4C)n1)C(N)=O` [Thiostrepton, reference compound], for which the IC50 in assay [1] (setting [3]) amounted to 1910 nM; in assay [2] (setting [4]), 3130 nM.

As for `COc1ncnc(NS(=O)(=O)c2ccc(N)cc2)c1OC` [Sulfadoxine, reference compound], the IC50 in assay [1] (setting [5]) was over 62500 nM; in assay [2] (setting [6]), 74 nM.

For `C=C[C@H]1C[N@@]2CC[C@H]1C[C@H]2[C@H](O)c1ccnc2ccc(OC)cc12` [Quinine sulfate dihydrate, reference compound], the values for the IC50 in assay [1] (setting [5]) and in assay [2] (setting [6]) were 12.3 nM and over 12500 nM, respectively.

Consider `CC1(C)N=C(N)N=C(N)N1c1ccc(Cl)cc1` [Cycloguanil, reference compound], for which the results for the IC50 in assay [1] (setting [5]) and in assay [2] (setting [6]) were 3.1 nM and 7 nM, respectively.

For the molecule `CCN(CCO)CCCC(C)Nc1ccnc2cc(Cl)ccc12` (centres unmarked) [Hydroxychloroquine, reference compound], the figures for the IC50 in assay [1] (setting [5]) and in assay [2] (setting [6]) were 13.9 nM and over 12500 nM, respectively.

For the molecule `O=CN(O)CCCP(=O)(O)O` [Fosmidomycin, reference compound], the results for the IC50 in assay [1] (setting [5]) and in assay [2] (setting [6]) were over 10000 nM and over 12500 nM, respectively.

For `C[C@@H]1C[C@@H]([C@H](O)CC2CC(=O)NC(=O)C2)C(=O)[C@@H](C)C1` [Cycloheximide, reference compound], the IC50 in assay [1] (setting [3]) came out at 1.8 nM; in assay [2] (setting [4]), 20.7 nM.

A word on the IC50: it is the concentration needed to halve the response being measured.

Source of the values: paper PMC4890880 (ACS infectious diseases, 2016).
